This is an account of results in PMC9628899 (Antiviral Research, 2003).

One data set deals with cowpox virus (CV). As to the kind of experiment: microbe, parasite or virus in culture. It counts as cell-based.
The next data set concerns vaccinia virus (VV). As to the kind of experiment: microbe, parasite or virus in culture. It counts as cell-based.
A further data set can be described thus: in vitro. The settings on record: human.
The mark [1] stands for this setting: Cowpox virus, HFF, read-out: EC50 CV.
[2] abbreviates: Orthopoxvirus vaccinia, HFF, read-out: EC50 VV.
Where [3] appears, read: Cowpox virus, HFF, read-out: Cowpox virus EC50.
The mark [4] stands for this setting: Orthopoxvirus vaccinia, HFF, read-out: Vaccinia virus EC50.

Where two headings read alike, the source gives them in different places.

For the molecule `Nc1nc(O)c2ncn(COC(CO)CO)c2n1` [Ganciclovir], the EC50 in the data set on cowpox virus (CV) (setting [1]) and with vaccinia virus (VV) (setting [2]) was above 300 µM in each case.
Regarding `NC(=O)c1ncn([C@@H]2O[C@H](CO)[C@@H](O)[C@H]2O)n1` [Ribavirin], the EC50 is above 400 µM in the data set on cowpox virus (CV) (setting [1]) and 280 µM with vaccinia virus (VV) (setting [2]).
With `CCOC(=O)C(C)NP1(=O)COC(Cn2ccc(N)nc2=O)CO1` (single isomer, unassigned; isomer i) [Ethyl alaninyl cyclic HPMPC—isomer I, Ethyl alaninyl cyclic HPMPC], the values for the EC50 in the data set on cowpox virus (CV) (read-out: Cowpox virus EC50) and with vaccinia virus (VV) (read-out: Vaccinia virus EC50) were 27 ± 6.5 µM and 15 ± 13 µM, respectively. This molecule displayed a CC50 with HFF cells above 276 µM.
`Nc1nc2c(ncn2CCC(CO)CO)c(=O)[nH]1` [Penciclovir]: the EC50 in the data set on cowpox virus (CV) (setting [1]) and in the data set with vaccinia virus (VV) (setting [2]) was above 300 µM each time.
With `O=c1[nH]c(=O)n([C@H]2C[C@H](O)[C@@H](CO)O2)cc1/C=C/Br` [Brivudin], the EC50 in the data set on cowpox virus (CV) (setting [1]) is 66 µM; in the data set on vaccinia virus (VV) (setting [2]), above 100 µM.
For `Nc1ccn([C@@H]2CS[C@H](CO)O2)c(=O)n1` [Lamivudine], in that order: above 400 µM and above 400 µM.
The like results for `O=c1[nH]c(=O)n([C@@H]2O[C@H](CO)[C@@H](O)[C@@H]2F)cc1I` [Fialuridine] were, in that order, 0.24 µM and 1.5 µM.
For `CCCCOC(=O)[C@H](C)NP(=O)(COCCn1cnc2c(N)ncnc21)N[C@@H](C)C(=O)OCCCC` [Bis(butylalaninyl)PMEA], the concentration giving a half-maximal response (EC50) came to 10 ± 8.2 µM in the data set on cowpox virus (CV) (read-out: Cowpox virus EC50) and 4.4 ± 0.2 µM in the data set with vaccinia virus (VV) (read-out: Vaccinia virus EC50). In the data set with HFF cells, this molecule yielded a CC50 of 100 ± 27 µM.
For `Nc1ncnc2c1ncn2CCOCP(=O)(O)O` [Adefovir, 9-(2-phosphonylmethoxyethyl)adenine], the EC50 in the data set with cowpox virus (CV) (setting [3]) is above 366 µM; with cowpox virus (CV) (setting [1]), above 300 µM; in the data set with vaccinia virus (VV) (setting [2]) it was above 300 µM; in the data set on vaccinia virus (VV) (setting [4]), above 366 µM. The molecule further showed a CC50 in “in vitro” above 366 µM.
For the molecule `Cc1cn([C@H]2O[C@@H](CO)[C@H](O)[C@H]2F)c(=O)[nH]c1=O` [Clevudine], the EC50 with cowpox virus (CV) (setting [1]) and in the data set on vaccinia virus (VV) (setting [2]) was above 300 µM throughout.
On to `Nc1nc2c(ncn2CCOCP(=O)(O)O)c(=O)[nH]1` [PMEG, 2-phosphonylmethoxyethyl guanine], for which the EC50 in the data set with cowpox virus (CV) (read-out: Cowpox virus EC50) is 11.4 ± 1.3 µM; in the data set with vaccinia virus (VV) (read-out: Vaccinia virus EC50), 4 ± 0.7 µM. In the data set on HFF cells, this molecule had a CC50 of 88 µM.
Turning to `Nc1ncnc2c1ncn2C[C@@H](CO)OCP(=O)(O)O` [HPMPA, (S)-9-(3-hydroxy-2-phosphonylmethoxypropyl)adenine], the figures for the EC50 in the data set with cowpox virus (CV) (read-out: Cowpox virus EC50) and in the data set with vaccinia virus (VV) (read-out: Vaccinia virus EC50) were 5 ± 4.7 µM and 3.5 ± 2.8 µM, respectively. Further, in the data set on HFF cells, the CC50 is 269 ± 21 µM. In the data set with vaccinia virus (VV), the “fold more active than CDV” value is listed as “about 10 fold”.
Consider `CC(C)OC(=O)OCOP(=O)(CO[C@H](C)Cn1cnc2c(N)ncnc21)OCOC(=O)OC(C)C` [Viread], for which the EC50 in the data set with cowpox virus (CV) (setting [1]) and in the data set on vaccinia virus (VV) (setting [2]) was above 300 µM throughout.
Consider `Nc1nc(NC2CC2)c2ncn(CCOCP(=O)(O)O)c2n1` [PME(N^6-cyclopropyl)DAP], for which the results for the EC50 in the data set with cowpox virus (CV) (read-out: Cowpox virus EC50) and in the data set with vaccinia virus (VV) (read-out: Vaccinia virus EC50) were 28 ± 13 µM and 23 ± 6.9 µM, respectively. In the data set on HFF cells, the CC50 is above 263 µM.
For `Nc1nc2c(ncn2COCCO)c(=O)[nH]1` [Acyclovir], the EC50 in the data set with cowpox virus (CV) (setting [1]) and in the data set on vaccinia virus (VV) (setting [2]) was above 300 µM in each case.
With `Nc1ccn([C@@H]2O[C@H](CO)[C@@H](O)C2(F)F)c(=O)n1` [Gemcitabine], the EC50 in the data set on cowpox virus (CV) (setting [1]) came to 0.017 µM; in the data set on vaccinia virus (VV) (setting [2]) it was 0.013 µM. For the same molecule, the “toxicity in vitro (in words)” value with HFF cells is “very toxic”. Moreover, the selectivity index with vaccinia virus (VV) was above 200.
`CC(C)OC(=O)[C@H](C)N[P@](=O)(CO[C@H](C)Cn1cnc2c(N)ncnc21)Oc1ccccc1` [Isopropyl alaninylphenyl PMPA]: the EC50 was determined as 98.9 µM in the data set with cowpox virus (CV) (setting [3]) and 23.5 µM in the data set on vaccinia virus (VV) (setting [4]). In the data set “in vitro”, the CC50 is above 143 µM.
Consider `Nc1nc(=O)c2ncn([C@@H]3C[C@H](CO)[C@H]3CO)c2[nH]1` [Lobucavir], for which the EC50 turned out to be 66 µM in the data set with cowpox virus (CV) (setting [1]) and 27 µM in the data set with vaccinia virus (VV) (setting [2]).
`C[C@H](Cn1cnc2c(N)ncnc21)OCP(=O)(O)O` [PMPA, (R)-9-(2-phosphonylmethoxypropyl)adenine]: the EC50 with cowpox virus (CV) (setting [3]) and in the data set with vaccinia virus (VV) (setting [4]) was above 300 µM each time. In addition, the CC50 in the data set “in vitro” was above 300 µM.
Regarding `O=c1[nH]c(=O)n([C@@H]2O[C@H](CO)[C@@H](O)[C@@H]2O)cc1/C=C/Br` [Sorivudine], the EC50 in the data set with cowpox virus (CV) (setting [1]) and with vaccinia virus (VV) (setting [2]) was above 100 µM in each case.
In the case of `C=C1[C@H](CO)[C@@H](O)C[C@@H]1n1cnc2c(=O)[nH]c(N)nc21` [Entecavir], the EC50 was 85 µM with cowpox virus (CV) (setting [1]) and 53 µM in the data set on vaccinia virus (VV) (setting [2]).
For `Nc1nc(N)c2ncn([C@H]3CO[C@@H](CO)O3)c2n1` [Amdoxovir], in that order: above 300 µM and above 300 µM.
The like results for `Nc1cccc(CN2C(=O)N(Cc3cccc(N)c3)[C@H](Cc3ccccc3)[C@H](O)[C@@H](O)[C@H]2Cc2ccccc2)c1` [Mozenavir] were, in that order, above 100 µM and above 100 µM.
The like results for `O=c1[nH]c(=O)n([C@H]2C[C@H](O)[C@@H](CO)O2)cc1I` [Idoxuridine] were, in that order, 2 µM and 6 µM.
As to `O=C(O)P(=O)(O)O` [Foscarnet], the EC50 in the data set with cowpox virus (CV) (setting [1]) and with vaccinia virus (VV) (setting [2]) was above 300 µM throughout.
Consider `C[C@H](NP1(=O)CO[C@@H](Cn2ccc(N)nc2=O)CO1)C(=O)OCCc1ccccc1` (stereo partly drawn) [Phenethyl alaninyl cyclic HPMPC—mixture, Phenethyl alaninyl cyclic HPMPC], for which the results for the EC50 in the data set with cowpox virus (CV) (read-out: Cowpox virus EC50) and in the data set with vaccinia virus (VV) (read-out: Vaccinia virus EC50) were 6.8 ± 1.8 µM and 7.1 ± 0.3 µM, respectively. The same molecule had a CC50 in the data set with HFF cells of 207 ± 18 µM.
In the case of `CCOCn1c(Cc2ccccc2)c(C(C)C)c(=O)[nH]c1=O` [Emivirine], the EC50 with cowpox virus (CV) (setting [1]) and in the data set with vaccinia virus (VV) (setting [2]) was above 300 µM throughout.
As to `CCOC(=O)C(C)NP1(=O)COC(Cn2ccc(N)nc2=O)CO1` (single isomer, unassigned; isomer ii) [Ethyl alaninyl cyclic HPMPC—isomer II, Ethyl alaninyl cyclic HPMPC], the EC50 stood at 26 ± 3.5 µM in the data set on cowpox virus (CV) (read-out: Cowpox virus EC50) and 15 ± 11 µM in the data set on vaccinia virus (VV) (read-out: Vaccinia virus EC50). For the same molecule, in the data set on HFF cells, the CC50 was above 278 µM.
Take Butyl salicyl cyclic HPMPC: the EC50 in the data set with cowpox virus (CV) (read-out: Cowpox virus EC50) is 34 ± 4.2 µM; in the data set on vaccinia virus (VV) (read-out: Vaccinia virus EC50), 32 ± 13 µM. In the data set with HFF cells, this molecule had a CC50 above 213 µM.
Consider `Nc1nc(N)c2ncn(CCOCP(=O)(O)O)c2n1` [PMEDAP], for which the EC50 in the data set with cowpox virus (CV) (setting [3]) was above 347 µM; with vaccinia virus (VV) (setting [4]) it was 204 ± 15 µM. The same molecule registered a CC50 in “in vitro” above 339 µM.
As to `Nc1nc(=O)n([C@@H]2CS[C@H](CO)O2)cc1F` [Coviracil], the EC50 in the data set with cowpox virus (CV) (setting [1]) and in the data set with vaccinia virus (VV) (setting [2]) was above 81 µM throughout.
As for `CC(C)OC(=O)OCOP(=O)(CO[C@H](C)Cn1cnc2c(N)ncnc21)OCOC(=O)OC(C)C` [Bis(isopropoxycarbonyloxymethyl)PMPA, bis(isopropoxycarbonyloxymethyl)PMPA], the EC50 with cowpox virus (CV) (setting [3]) and in the data set on vaccinia virus (VV) (setting [4]) was above 157 µM each time. Further, in “in vitro”, the CC50 is above 157 µM.
With `CC(=O)OCC(CCn1cnc2cnc(N)nc21)COC(C)=O` [Famciclovir], the EC50 in the data set on cowpox virus (CV) (setting [1]) and in the data set on vaccinia virus (VV) (setting [2]) was above 300 µM throughout.
`CCCCOC(=O)C(C)NP(=O)(COCCn1cnc2c(NC3CC3)nc(N)nc21)NC(C)C(=O)OCCCC` (stereo not drawn) [Bis(butylalaninyl) PME(N^6-cyclopropyl)DAP]: the half-maximal effective concentration (EC50) in the data set on cowpox virus (CV) (read-out: Cowpox virus EC50) is 0.26 ± 0.2 µM; in the data set on vaccinia virus (VV) (read-out: Vaccinia virus EC50), 0.08 ± 0.01 µM. Further, in the data set with HFF cells, the CC50 was found to be 49 ± 33 µM.
